In ChEMBL document CHEMBL3885881, “DrugMatrix”:

Organism: Rattus norvegicus
Assay type: toxicity, organism-based, Sprague-Dawley
Conditions: in vivo, ip, route intraperitoneal, vehicle 100 % SALINE; for ABSOLUTE EOSINOPHIL / ABSOLUTE LYMPHOCYTE / ABSOLUTE MONOCYTE / ABSOLUTE SEGMENTED NEUTROPHIL / BASOPHIL / EOSINOPHIL / ERYTHROCYTE COUNT / HEMATOCRIT / HEMOGLOBIN / LEUKOCYTE COUNT / LYMPHOCYTE / MEAN CORPUSCULAR HEMOGLOBIN / MEAN CORPUSCULAR HEMOGLOBIN CONCENTRATION / MEAN CORPUSCULAR VOLUME / MONOCYTE / NEUTROPHIL / NUCLEATED RED BLOOD CELLS / PLATELET COUNT: tissue Blood; for ALANINE AMINOTRANSFERASE / ALBUMIN / ALKALINE PHOSPHATASE / ASPARTATE AMINOTRANSFERASE / BLOOD UREA NITROGEN / CARBON DIOXIDE / CHLORIDE / CHOLESTEROL / CREATINE PHOSPHOKINASE / CREATININE / GLUCOSE / LACTATE DEHYDROGENASE / LIPASE / PHOSPHORUS / POTASSIUM / SODIUM / TOTAL BILIRUBIN / TOTAL PROTEIN / URIC ACID: tissue Plasma
[1] = 16 mg/kg, 24 h, dose level Low, time 1 day
[2] = 25 mg/kg, 6 h, dose level M1, time 0.25 day
[3] = 25 mg/kg, 24 h, dose level M1, time 1 day

Description: DrugMatrix - Regimen: Single

C=CCO [ALLYL ALCOHOL]
ABSOLUTE EOSINOPHIL [1]: 29.33 CELLS/uL
ABSOLUTE LYMPHOCYTE [1]: 15204.83 CELLS/uL
ABSOLUTE MONOCYTE [1]: 174.67 CELLS/uL
ABSOLUTE SEGMENTED NEUTROPHIL [1]: 841.17 CELLS/uL
BASOPHIL [1]: 0%
EOSINOPHIL [1]: 0.17%
ERYTHROCYTE COUNT [1]: 5.13 x10E6/uL
HEMATOCRIT [1]: 33.13%
HEMOGLOBIN [1]: 12.85 G/DL
LEUKOCYTE COUNT [1]: 16.25 x10E3/uL
LYMPHOCYTE [1]: 93.83%
MEAN CORPUSCULAR HEMOGLOBIN [1]: 25.02 pg
MEAN CORPUSCULAR HEMOGLOBIN CONCENTRATION [1]: 38.82 G/DL
MEAN CORPUSCULAR VOLUME [1]: 64.5 fL
MONOCYTE [1]: 1%
NEUTROPHIL [1]: 5%
NUCLEATED RED BLOOD CELLS [1]: 0.33 /100WBC
PLATELET COUNT [1]: 1056.83 x10E3/uL
ALANINE AMINOTRANSFERASE [1]: 50.67 u/L
ALBUMIN [1]: 4.33 G/DL
ALKALINE PHOSPHATASE [1]: 273.5 u/L
ASPARTATE AMINOTRANSFERASE [1]: 75.83 u/L
BLOOD UREA NITROGEN [1]: 11.17 mg/dL
CARBON DIOXIDE [1]: 27.5 mmol/L
CHLORIDE [1]: 101.83 MEQ/L
CHOLESTEROL [1]: 67 mg/dL
CREATINE PHOSPHOKINASE [1]: 299.83 u/L
CREATININE [1]: 0.18 mg/dL
GLUCOSE [1]: 166.33 mg/dL
LACTATE DEHYDROGENASE [1]: 243.17 u/L
LIPASE [1]: 9.67 u/L
PHOSPHORUS [1]: 10.5 mg/dL
POTASSIUM [1]: 5.58 MEQ/L
SODIUM [1]: 147.05 MEQ/L
TOTAL BILIRUBIN [1]: 0.15 mg/dL
TOTAL PROTEIN [1]: 5.87 G/DL
URIC ACID [1]: 1.25 mg/dL
ABSOLUTE EOSINOPHIL [2]: 0 CELLS/uL
ABSOLUTE LYMPHOCYTE [2]: 12514.83 CELLS/uL
ABSOLUTE MONOCYTE [2]: 196.67 CELLS/uL
ABSOLUTE SEGMENTED NEUTROPHIL [2]: 2271.83 CELLS/uL
BASOPHIL [2]: 0%
EOSINOPHIL [2]: 0%
ERYTHROCYTE COUNT [2]: 5.42 x10E6/uL
HEMATOCRIT [2]: 35.1%
HEMOGLOBIN [2]: 13.58 G/DL
LEUKOCYTE COUNT [2]: 14.98 x10E3/uL
LYMPHOCYTE [2]: 83.83%
MEAN CORPUSCULAR HEMOGLOBIN [2]: 25.07 pg
MEAN CORPUSCULAR HEMOGLOBIN CONCENTRATION [2]: 38.7 G/DL
MEAN CORPUSCULAR VOLUME [2]: 64.73 fL
MONOCYTE [2]: 1.33%
NEUTROPHIL [2]: 14.83%
NUCLEATED RED BLOOD CELLS [2]: 0 /100WBC
PLATELET COUNT [2]: 1079 x10E3/uL
ALANINE AMINOTRANSFERASE [2]: 87.5 u/L
ALBUMIN [2]: 4.43 G/DL
ALKALINE PHOSPHATASE [2]: 238.5 u/L
ASPARTATE AMINOTRANSFERASE [2]: 133.17 u/L
BLOOD UREA NITROGEN [2]: 10.33 mg/dL
CARBON DIOXIDE [2]: 27.67 mmol/L
CHLORIDE [2]: 101.5 MEQ/L
CHOLESTEROL [2]: 58.83 mg/dL
CREATINE PHOSPHOKINASE [2]: 180 u/L
CREATININE [2]: 0.12 mg/dL
GLUCOSE [2]: 158.17 mg/dL
LACTATE DEHYDROGENASE [2]: 175.17 u/L
LIPASE [2]: 10.67 u/L
PHOSPHORUS [2]: 11.65 mg/dL
POTASSIUM [2]: 5.53 MEQ/L
SODIUM [2]: 144.52 MEQ/L
TOTAL BILIRUBIN [2]: 0.12 mg/dL
TOTAL PROTEIN [2]: 5.95 G/DL
URIC ACID [2]: 1.33 mg/dL
ABSOLUTE EOSINOPHIL [3]: 41.33 CELLS/uL
ABSOLUTE LYMPHOCYTE [3]: 12363.17 CELLS/uL
ABSOLUTE MONOCYTE [3]: 291.83 CELLS/uL
ABSOLUTE SEGMENTED NEUTROPHIL [3]: 987 CELLS/uL
BASOPHIL [3]: 0%
EOSINOPHIL [3]: 0.33%
ERYTHROCYTE COUNT [3]: 5.25 x10E6/uL
HEMATOCRIT [3]: 35.35%
HEMOGLOBIN [3]: 13.55 G/DL
LEUKOCYTE COUNT [3]: 13.68 x10E3/uL
LYMPHOCYTE [3]: 90.33%
MEAN CORPUSCULAR HEMOGLOBIN [3]: 25.85 pg
MEAN CORPUSCULAR HEMOGLOBIN CONCENTRATION [3]: 38.38 G/DL
MEAN CORPUSCULAR VOLUME [3]: 67.32 fL
MONOCYTE [3]: 2.17%
NEUTROPHIL [3]: 7.17%
NUCLEATED RED BLOOD CELLS [3]: 0.33 /100WBC
PLATELET COUNT [3]: 960.33 x10E3/uL
ALANINE AMINOTRANSFERASE [3]: 143 u/L
ALBUMIN [3]: 4.27 G/DL
ALKALINE PHOSPHATASE [3]: 289.67 u/L
ASPARTATE AMINOTRANSFERASE [3]: 211.17 u/L
BLOOD UREA NITROGEN [3]: 12.5 mg/dL
CARBON DIOXIDE [3]: 28.33 mmol/L
CHLORIDE [3]: 100.67 MEQ/L
CHOLESTEROL [3]: 75.17 mg/dL
CREATINE PHOSPHOKINASE [3]: 317.5 u/L
CREATININE [3]: 0.22 mg/dL
GLUCOSE [3]: 148.33 mg/dL
LACTATE DEHYDROGENASE [3]: 194.67 u/L
LIPASE [3]: 9.33 u/L
PHOSPHORUS [3]: 11.4 mg/dL
POTASSIUM [3]: 6.21 MEQ/L
SODIUM [3]: 147.37 MEQ/L
TOTAL BILIRUBIN [3]: 0.17 mg/dL
TOTAL PROTEIN [3]: 5.9 G/DL
URIC ACID [3]: 1.15 mg/dL
